According to article PMC3025705 (European journal of nuclear medicine and molecular imaging, 2010):

System: human sst2 receptor
Test: Immunofluorescence microscopy based sst2 internalization assay
Type: cell-based
Settings: HEK-sst2 cells, 30 min at 37°C, 10 nM

Tyr^3-octreotide [TOC]
sst2 internalization by positive control: sub-maximal internalization effect
